Results from patent publication US9999620B2, “CaMKK-β as a target for treating cancer” (Duke University, priority 2010, dated 2018).

How the values were obtained:
Format in all cases: cell-based, human
VCaP cells [1] = assay: Boyden dual chamber migration assay; settings: 1 h +/-30 mM STO-609, overnight +/-10 nM R1881, 16 h migration, 5% FBS chemoattractant
Excerpt: FIG. 6. CaMKKβ activity in androgen-mediated cell migration in prostate cancer cells. […] Cell lysates were then subjected to western blot analysis and subsequent densitometry (right). Phospho-[…]) levels were normalized to total CaMKI. Results are expressed as fold induction/phosphorylation over double vehicle-treated cells+SE (n=2). *, P<0.05 indicates significant changes from vehicle-treated cells. ^#, P<0.05 indicates significant changes from vehicle (no STO-609)-treated cells. B, VCaP cells were plated in 96-well plates and grown for 3 d. […] On d 10, cells were lysed and the relative number of cells was measured with the fluorescent DNA binding dye FluoReporter Blue. Each sample was performed in triplicate, and results from a representative experiment are shown. […] Cells were then dissociated and reseeded into the top chamber for a Boyden dual chamber migration assay. Fresh medium with the corresponding treatments was added to the top and bottom chambers while either no chemoattractant or 5% FBS (serum) was added to the bottom chamber. After 16 h, migrated cells were fixed, stained with crystal violet and counted in three different microscopic fields and added together. […]

VCaP cells [2] = assay: Cell proliferation assay (FluoReporter Blue DNA content); settings: +/-1 nM R1881 and +/-30 mM STO-609 on d 3, d 5, d 7, read on d 10
Excerpt: FIG. 6. CaMKKβ activity in androgen-mediated cell migration in prostate cancer cells. […] Cell lysates were then subjected to western blot analysis and subsequent densitometry (right). Phospho-[…]) levels were normalized to total CaMKI. Results are expressed as fold induction/phosphorylation over double vehicle-treated cells+SE (n=2). *, P<0.05 indicates significant changes from vehicle-treated cells. ^#, P<0.05 indicates significant changes from vehicle (no STO-609)-treated cells. B, VCaP cells were plated in 96-well plates and grown for 3 d. […] On d 10, cells were lysed and the relative number of cells was measured with the fluorescent DNA binding dye FluoReporter Blue. Each sample was performed in triplicate, and results from a representative experiment are shown. […] Cells were then dissociated and reseeded into the top chamber for a Boyden dual chamber migration assay. […] After 16 h, migrated cells were fixed, stained with crystal violet and counted in three different microscopic fields and added together. […] Proliferation assays were performed as previously described (12) by measuring the cellular DNA content using the FluoReporter Blue Fluorometric double-stranded DNA Quantitation Kit (Invitrogen) as per the manufacturer's protocol.

[3] = test system: CaMKI phosphorylation (T177) by CaMKKβ; assay: Western blot of phospho-CaMKI (readout of CaMKKβ activity); settings: for androgen-increased phosphorylation of CaMKI (T177): STO-609 pretreatment
Protocol: A, LNCaP cells were pretreated for 1 h with vehicle, 10 or 30 mM STO-609 prior to overnight treatment with vehicle, 100 pM or 10 nM R1881. Cell lysates were then subjected to western blot analysis and subsequent densitometry (right). Phospho-CaMKI (p-CaMKI) levels were normalized to total CaMKI. Results are expressed as fold induction/phosphorylation over double vehicle-treated cells+SE (n=2). *, P<0.05 indicates significant changes from vehicle-treated cells. ^#, P<0.05 indicates significant changes from vehicle (no STO-609)-treated cells.
A, LNCaP cells were pretreated for 1 h+/−30 mM STO-609 prior to overnight treatment+/−10 nM R1881. Cell lysates were then subjected to western blot analysis and subsequent densitometry (right). CaMKKβ levels were normalized to GAPDH. Phospho-CaMKI (p-CaMKI) levels were normalized to total CaMKI. Phospho-AMPK (p-AMPK) levels were normalized to total AMPK. Results are expressed as fold induction/phosphorylation over double vehicle-treated cells+SE (n=3). *, significant changes from vehicle-treated cells.

Compound: O=C(O)c1ccc2c3c1cccc3c(=O)n1c3ccccc3nc21 [STO-609]
- androgen-mediated migration (VCaP cells [1]): blocked the androgen-mediated migration
- effect on cell number (androgen-mediated cellular growth) (VCaP cells [2]): no significant effect
- CaMKKβ activity (phospho-CaMKI levels) ([3]; LNCaP, 1 h pretreatment with 10 or 30 mM STO-609, then overnight 100 pM or 10 nM R1881): suppressed CaMKKβ activity
- androgen-increased phosphorylation of CaMKI (T177) ([3]; LNCaP, 10 nM R1881): reversed
- androgen-increased phosphorylation of CaMKI (T177) ([3]; VCaP): reversed
